Source: US20120214775A1, “Pharmaceutical Salts of 3-O-(3',3'-Dimethylsuccinyl) Betulinic Acid” (priority 2004, published 2012)
pEC50: −log10 of the molar value. Converted amounts (≈) assume the structure as drawn. “Also recorded” adds a separate entry of the source. Counter-ions that a name gives are not always drawn. Like-named read-outs stand apart in the source and are kept apart here. Values belong to the compound of their own block, whether it stands above or below them.

How the values were obtained:
[1] = test system: HIV-1 replication in H9 lymphocyte cells; conditions: cited from earlier work; for therapeutic index (T.I.) / pEC50: H9 lymphocyte cells; for T.I.: acutely infected H9 lymphocytes
[2] = 25° C.
[3] = Equilibrium solubility in selected solvents; conditions: for solubility thermodynamic at 7 days: organic solvent or mixture, equilibration 7 days
HIV-1 NL4-3 = test: In vivo anti-HIV efficacy in the SCID-hu Thy/Liv mouse model of HIV infection; conditions: for implant p24: untreated 440; for antiviral activity against NL4-3 (in words): twice-daily oral gavage at 100 and 150 mg/kg/day, SCID-hu Thy/Liv mice
physchem [4] = conditions: 25 °C
[5] = Intravenous administration of DSB in rats (reference for bioavailability); assay type: in vivo; conditions: rat, plasma, dose 10.4 mg/kg, read-out: AUCINF after intravenous administration
Protocol: Blood samples were collected by cardiac puncture (n=2 rats/formulation/time point) at the following times: 0.25, 0.5, 1, 2, 4, 6, 12, and 24 h. Bioavailabilities of the oral formulations were calculated as the ratio of the oral dose-adjusted AUCINF assuming proportionality of the dose adjustments to the dose adjusted AUCINF reported after intravenous administration (AUCINF=63.3 μg h/mL) from a study of DSB in rats.

physchem [6] = conditions: thermodynamic from solid, Equilibrium solubility
[7] = Water solubility (summary statement); assay type: physicochemical
[8] = highest dosage level (150 mg/kg/day), twice-daily oral gavage
[9] = once-daily oral gavage at 100 mg/kg/day

Structure (SMILES): CC(C)[C@@H]1CC[C@]2(C(=O)O)CC[C@]3(C)C(CCC4[C@@]5(C)CC[C@H](O)C(C)(C)C5CC[C@]43C)C12 (stereo partly shown) [dihydrobetulinic acid]
- therapeutic index (T.I.) [1]: 14
- pEC50 ([1]; unit inferred, read-out: EC50, anti-HIV activity): 6.05

Structure (SMILES): CC(=O)[C@@H]1CC[C@]2(C(=O)O)CC[C@]3(C)[C@H](CC[C@@H]4[C@@]5(C)CC[C@H](O)C(C)(C)[C@@H]5CC[C@]43C)[C@@H]12 [platanic acid]
- therapeutic index (T.I.) [1]: 14
- pEC50 ([1]; read-out: EC50, inhibitory activity against HIV-1 replication): 5.19

- visual solubility ([2]; basic and neutral conditions): visibly soluble
- visual solubility ([2]; strongly acid solutions): visually insoluble
- Equilibrium solubility ([3]; Deionized Water, equilibration 3 days): >18 mg/mL
- solubility thermodynamic at 7 days ([3]; thermodynamic from solid, Equilibrium solubility, Ethanol, solid may have precipitated on transfer): 25 mg/mL
- solubility thermodynamic at 7 days ([3]; thermodynamic from solid, Equilibrium solubility, Methanol): 37 mg/mL
- solubility thermodynamic at 7 days ([3]; thermodynamic from solid, Equilibrium solubility, PEG 400, compound may have precipitated on removal from water bath): 5.12 mg/mL
- solubility thermodynamic at 7 days ([3]; thermodynamic from solid, Equilibrium solubility, Propylene glycol): > 255 mg/mL
- solubility thermodynamic at 3 days ([3]; saline or isotonic, thermodynamic from solid, Equilibrium solubility, PSS (physiological salt solution), equilibration 3 days): 80.2 µg/mL
- solubility thermodynamic at 3 days ([3]; saline or isotonic, thermodynamic from solid, Equilibrium solubility, PSS + 0.1% DMSO, equilibration 3 days): 108 µg/mL
- solubility thermodynamic at 3 days ([3]; saline or isotonic, thermodynamic from solid, Equilibrium solubility, PSS + 1% DMSO, equilibration 3 days): 108 µg/mL
- solubility thermodynamic at 3 days ([3]; water, thermodynamic from solid, Equilibrium solubility, Deionized Water, equilibration 3 days): > 18000 µg/mL
- solubility thermodynamic at 4 days ([3]; water, thermodynamic from solid, Equilibrium solubility, Deionized Water, equilibration 4 days): > 7000 µg/mL
- solubility (physchem [4]; pH 9.461, aqueous buffer): 7540 µg/mL
- solubility (physchem [4]; pH 10.691, aqueous buffer): 7460 µg/mL
Structure (SMILES): C=C(C)[C@@H]1CC[C@]2(C(=O)O)CC[C@]3(C)[C@H](CC[C@@H]4[C@@]5(C)CC[C@H](OC(=O)CC(C)(C)C(=O)O)C(C)(C)[C@@H]5CC[C@]43C)[C@@H]12 [DSB-(NmG)2, di-(N-methyl-D-glucamine) salt of 3-O-(3′,3′-dimethylsuccinyl) betulinic acid]
- solubility thermodynamic at 3 days ([3]; aqueous buffer, thermodynamic from solid, Equilibrium solubility, 1% DMSO in HERG Buffer, equilibration 3 days): 87.1 µg/mL
- solubility thermodynamic at 3 days ([3]; aqueous buffer, thermodynamic from solid, Equilibrium solubility, HERG Buffer, equilibration 3 days): 17.8 µg/mL
- implant p24 (HIV-1 NL4-3; 100 mg/kg/day, twice-daily oral gavage): 69 pg p24 per 10^6 cells
- HIV-1 RNA reduction versus untreated mice (HIV-1 NL4-3; [8]): 97%
- implant p24 (HIV-1 NL4-3; [8]): 14 pg p24 per 10^6 cells
- MHC-I expression on CD4+CD8+ thymocytes (HIV-1 NL4-3; highest dosage level (150 mg/kg/day), untreated 530): 250 mean fluorescence intensity
- p24 reduction versus untreated mice (HIV-1 NL4-3; highest dosage level (150 mg/kg/day, started at 300), twice-daily oral gavage, 22 days, Thy/Liv implant): 99%
- antiviral activity against NL4-3 (in words) (HIV-1 NL4-3): potent, dose-dependent antiviral activity; also recorded: potent in vivo inhibitor of HIV-1 replication
- antiviral activity against NL4-3 (in words) (HIV-1 NL4-3; listed as DSG-(NmG)2): potent in vivo inhibitor of HIV-1 replication

- AUC(0-inf) [5]: 63300 ng·h/mL
- solubility thermodynamic at 3 days (physchem [6]; saline or isotonic): 1500 µg/mL (≈ 2560 µM)
- solubility thermodynamic at 3 days (physchem [6]; water): 35.1 µg/mL (≈ 60 µM)
- solubility [7]: ~100 µg/mL (≈ 171 µM)
Structure (SMILES): C=C(C)[C@H]1CC[C@]2(C(=O)O)CC[C@@]3(C)[C@H](CC[C@H]4[C@@]5(C)CC[C@H](OC(=O)CC(C)(C)C(=O)O)C(C)(C)[C@H]5CC[C@]43C)[C@H]12 [DSB, 3-O-(3′,3′-dimethylsuccinyl) betulinic acid]
- T.I. [1]: more than 970,000

Structure (SMILES): Nc1ccn([C@@H]2CS[C@H](CO)O2)c(=O)n1 [Group 3TC, lamivudine, reference compound]
- HIV-1 RNA reduction versus untreated mice (HIV-1 NL4-3; [9]): 96%
- thymocyte viability (live thymocytes) (HIV-1 NL4-3; [9]): 71%
- p24 reduction versus untreated mice (HIV-1 NL4-3; once-daily oral gavage at 100 mg/kg/day (positive control)): 97%
- implant p24 (HIV-1 NL4-3; [9]): 35 pg p24 per 10^6 cells

Structure (SMILES): CC(C)C1CCC2(C(=O)O)CCC3(C)C(CCC4C5(C)CCC(OC(=O)CC(C)(C)C(=O)O)C(C)(C)C5CCC43C)C12 (stereo not shown) [dihydrobetulinic acid analog]
- T.I. [1]: more than 400,000
